From patent publication US11524966B1 (Valo Early Discovery, Inc., priority 2017, dated 2022)

Molecular target: T1, USP28 (USP28-5(1-1077)-TEV-6*His; LifeSensors) (Homo sapiens, UniProt Q96RU2)
T1 construct: construct USP28 (USP28-5(1-1077)-TEV-6*His; LifeSensors); TEV cleavage site (C); 6xHis (C); purchased LifeSensors
T1 sequence (Q96RU2 1-1077): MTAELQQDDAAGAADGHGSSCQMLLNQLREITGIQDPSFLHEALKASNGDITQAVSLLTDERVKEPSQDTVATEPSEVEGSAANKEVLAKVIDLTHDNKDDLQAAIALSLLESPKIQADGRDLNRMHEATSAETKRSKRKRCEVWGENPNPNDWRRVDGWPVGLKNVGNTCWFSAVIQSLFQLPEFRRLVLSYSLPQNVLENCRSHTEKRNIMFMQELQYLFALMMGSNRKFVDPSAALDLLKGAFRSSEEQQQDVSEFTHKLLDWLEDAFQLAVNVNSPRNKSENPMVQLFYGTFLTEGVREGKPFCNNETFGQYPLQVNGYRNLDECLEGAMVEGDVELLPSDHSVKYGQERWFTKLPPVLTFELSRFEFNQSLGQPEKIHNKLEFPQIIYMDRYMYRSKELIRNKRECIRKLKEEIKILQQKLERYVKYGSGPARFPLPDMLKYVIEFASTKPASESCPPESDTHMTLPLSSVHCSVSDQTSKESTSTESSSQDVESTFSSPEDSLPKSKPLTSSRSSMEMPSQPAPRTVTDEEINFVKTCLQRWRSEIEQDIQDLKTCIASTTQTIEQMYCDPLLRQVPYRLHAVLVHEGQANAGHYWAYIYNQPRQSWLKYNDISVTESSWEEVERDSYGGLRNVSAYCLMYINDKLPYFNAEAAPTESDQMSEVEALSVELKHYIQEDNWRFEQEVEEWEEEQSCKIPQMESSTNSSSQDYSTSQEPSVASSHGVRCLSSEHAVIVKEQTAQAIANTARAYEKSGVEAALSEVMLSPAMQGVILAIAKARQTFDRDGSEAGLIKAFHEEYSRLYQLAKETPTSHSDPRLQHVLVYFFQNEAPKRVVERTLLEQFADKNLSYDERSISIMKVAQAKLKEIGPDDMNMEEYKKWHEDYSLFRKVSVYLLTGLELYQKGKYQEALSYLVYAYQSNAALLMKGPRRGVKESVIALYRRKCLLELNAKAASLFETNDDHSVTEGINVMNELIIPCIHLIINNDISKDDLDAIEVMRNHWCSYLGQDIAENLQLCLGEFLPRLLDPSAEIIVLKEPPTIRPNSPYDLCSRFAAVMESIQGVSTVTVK
Assay: Ubiquitin-Rhodamine 110 Assay for USP28 Activity, Example A-1(b)
Type: biochemical
Conditions: Ubiquitin-Rhodamine 110 assay, Example A-1(b)
Outline: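 Single-point screening used 10 μM compound with 90 min room-temperature incubation; follow-up dose-responses (25 μM top, 3-fold) used 75 pM USP28 1-1077 construct, 30 min compound preincubation, 25 nM Ub-Rh110, 20 min reaction, citric acid quench. Rh110 fluorescence normalised to no-enzyme and DMSO controls; IC50 from 4-parameter logistic fit.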

SMILES: C[C@H]1CCc2cc(C(=O)N[C@H]3COc4cc(N5CC6CCC(C5)N6)ccc4C3)cnc2N1 [Example 73, (7S)-N-((3R)-7-(3,8-diazabicyclo[3.2.1]octan-3-yl)chroman-3-yl)-7-methyl-5,6,7,8-tetrahydro-1,8-naphthyridine-3-carboxamide]
- USP28 A-1(b) IC50 range: + (>2 μM)
